{
  "source": "patent US11654096B2",
  "about": "(L'OREAL, priority 2017, dated 2023)",
  "type_in_all_cases": "cell-based",
  "key": {"[1]": {"tested_on": "normal human dermal fibroblasts (NHDFs)", "experiment": "Neosynthesis of total GAGs by NHDFs, [3H]-glucosamine incorporation", "conditions": "total GAGs, NHDFs; for [3H]-glucosamine (cpm): single replicates", "experimental": "(§1) The effects of the compounds on the neosynthesis of total and sulfated glycosaminoglycans (GAGs) were studied on two cell models, normal human epidermal keratinocytes (NHEKs) and normal human dermal fibroblasts (NHDFs). The effects of these compounds were evaluated by measuring: • the incorporation of [3H]-glucosamine into the total GAGs neosynthesized by NHEKs and by NHDFs, • the incorporation of [35S]-sulfate into the sulfated GAGs neosynthesized by NHEKs and by NHDFs.\n(§2) The fibroblasts were seeded into wells and cultured in culture medium for 24 hours. The medium was then replaced with culture medium containing or not containing (controt) the compounds to be tested or the reference (TGF-β at 10 ng/ml), then the cells were incubated for 72 hours with the addition of the [35S]-sulfate radioactive label (sulfated GAGs) or of the [3H]-glucosamine radioactive label (total GAGs) for the final 24 hours of incubation.\n(§3) At the end of the incubation, the glycosaminoglycans were extracted from the cells with a chaotropic buffer. The GAGs were then purified by ion exchange chromatography: adsorption of the anionic molecules on Q-Sepharose beads and desorption of the molecules of low or medium anionic nature, with a suitable solution.\n(§4) The radioactivity incorporated into the molecules left on the support (GAGs, predominantly) was measured by liquid scintillation.\n(§5) All the experimental conditions were performed in n=3.\n(§6) The inter-group comparisons were performed using Student's non-paired two-sided t-test. The statistical analyses can be interpreted if n≥5; however, for n<5, the data calculated are provided only by way of indication."}, "[2]": {"tested_on": "normal human dermal fibroblasts (NHDFs)", "experiment": "Neosynthesis of sulfated GAGs by NHDFs, [35S]-sulfate incorporation", "conditions": "sulfated GAGs, NHDFs; for [35S]-Sulfate (cpm): single replicates", "experimental": "as §1, §2, §3, §4, §5, §6"}, "[3]": {"tested_on": "normal human epidermal keratinocytes (NHEKs)", "experiment": "Neosynthesis of sulfated GAGs by NHEKs, [35S]-sulfate incorporation", "conditions": "sulfated GAGs, NHEKs; for [35S]-Sulfate (cpm): single replicates", "experimental": "as §1\n(§7) The keratinocytes were seeded into wells and cultured in culture medium for 24 hours. The medium was then replaced with culture medium containing or not containing (control) the compounds to be tested or the reference (4-nitrophenyl β-D-xylopyranoside at 300 μM), then the cells were incubated for 72 hours with the addition of the [3H]-glucosamine radioactive label (total GAGs) or of the [35S]-sulfate radioactive label (sulfated GAGs) for the final 24 hours of incubation.\nas §3, §4, §5, §6"}, "[4]": {"tested_on": "normal human epidermal keratinocytes (NHEKs)", "experiment": "Neosynthesis of total GAGs by NHEKs, [3H]-glucosamine incorporation", "conditions": "total GAGs, NHEKs; for [3H]-glucosamine (cpm): single replicates", "experimental": "as §1, §7, §3, §4, §5, §6"}},
  "note": "Several values for one entry are separate records, joined by “and”; a condition that tells them apart may be missing. Equal values may be shown once.",
  "data": [
    {"compound": "Oc1ccc(/C=C/c2cc(O)cc(O[C@@H]3OC[C@@H](O)[C@H](O)[C@H]3O)c2)cc1", "note": "[Compound 1a, 3-hydroxy-5-[(E)-2-(4-hydroxyphenyl)ethenyl]phenyl β-D-xylopyranoside]", "values": [
      {"measurement": "% Control", "setting": "[1]; campaign 2, 10 μM", "value": 108, "unit": "%"},
      {"measurement": "Mean (cpm)", "setting": "[1]; campaign 2, 10 μM", "value": 1684, "unit": "cpm"},
      {"measurement": "[3H]-glucosamine (cpm)", "setting": "[1]; campaign 2, 10 μM", "value": "1622 cpm and 1750 cpm and 1680 cpm"},
      {"measurement": "% Control", "setting": "[1]; campaign 2, 100 μM", "value": 90, "unit": "%"},
      {"measurement": "Mean (cpm)", "setting": "[1]; campaign 2, 100 μM", "value": 1408, "unit": "cpm"},
      {"measurement": "[3H]-glucosamine (cpm)", "setting": "[1]; campaign 2, 100 μM", "value": "1422 cpm and 1331 cpm and 1470 cpm"},
      {"measurement": "% Control", "setting": "[2]; campaign 1, 10 μM", "value": 211, "unit": "%"},
      {"measurement": "Mean (cpm)", "setting": "[2]; campaign 1, 10 μM", "value": 3472, "unit": "cpm"},
      {"measurement": "[35S]-Sulfate (cpm)", "setting": "[2]; campaign 1, 10 μM", "value": "3286 cpm and 3573 cpm and 3557 cpm"},
      {"measurement": "% Control", "setting": "[2]; campaign 1, 100 μM", "value": 537, "unit": "%"},
      {"measurement": "Mean (cpm)", "setting": "[2]; campaign 1, 100 μM", "value": 8844, "unit": "cpm"},
      {"measurement": "[35S]-Sulfate (cpm)", "setting": "[2]; campaign 1, 100 μM", "value": "8753 cpm and 8534 cpm and 9244 cpm"},
      {"measurement": "% Control", "setting": "[2]; campaign 2, 10 μM", "value": 221, "unit": "%"},
      {"measurement": "Mean (cpm)", "setting": "[2]; campaign 2, 10 μM", "value": 1254, "unit": "cpm"},
      {"measurement": "[35S]-Sulfate (cpm)", "setting": "[2]; campaign 2, 10 μM", "value": "1274 cpm and 1307 cpm and 1180 cpm"},
      {"measurement": "% Control", "setting": "[2]; campaign 2, 100 μM", "value": 411, "unit": "%"},
      {"measurement": "Mean (cpm)", "setting": "[2]; campaign 2, 100 μM", "value": 2328, "unit": "cpm"},
      {"measurement": "[35S]-Sulfate (cpm)", "setting": "[2]; campaign 2, 100 μM", "value": "2237 cpm and 2369 cpm and 2379 cpm"},
      {"measurement": "% Control", "setting": "[3]; campaign 1, 10 μM", "value": 137, "unit": "%"},
      {"measurement": "Mean (cpm)", "setting": "[3]; campaign 1, 10 μM", "value": 9319, "unit": "cpm"},
      {"measurement": "[35S]-Sulfate (cpm)", "setting": "[3]; campaign 1, 10 μM", "value": "9304 cpm and 9522 cpm and 9131 cpm"},
      {"measurement": "% Control", "setting": "[3]; campaign 1, 100 μM", "value": 839, "unit": "%"},
      {"measurement": "Mean (cpm)", "setting": "[3]; campaign 1, 100 μM", "value": 56923, "unit": "cpm"},
      {"measurement": "[35S]-Sulfate (cpm)", "setting": "[3]; campaign 1, 100 μM", "value": "53801 cpm and 56728 cpm and 60239 cpm"},
      {"measurement": "% Control", "setting": "[3]; campaign 2, 10 μM", "value": 217, "unit": "%"},
      {"measurement": "Mean (cpm)", "setting": "[3]; campaign 2, 10 μM", "value": 11501, "unit": "cpm"},
      {"measurement": "[35S]-Sulfate (cpm)", "setting": "[3]; campaign 2, 10 μM", "value": "10206 cpm and 12532 cpm and 11765 cpm"},
      {"measurement": "% Control", "setting": "[3]; campaign 2, 100 μM", "value": 973, "unit": "%"},
      {"measurement": "Mean (cpm)", "setting": "[3]; campaign 2, 100 μM", "value": 51673, "unit": "cpm"},
      {"measurement": "[35S]-Sulfate (cpm)", "setting": "[3]; campaign 2, 100 μM", "value": "46568 cpm and 54125 cpm and 54327 cpm"},
      {"measurement": "% Control", "setting": "[4]; campaign 1, 10 μM", "value": 117, "unit": "%"},
      {"measurement": "Mean (cpm)", "setting": "[4]; campaign 1, 10 μM", "value": 15165, "unit": "cpm"},
      {"measurement": "[3H]-glucosamine (cpm)", "setting": "[4]; campaign 1, 10 μM", "value": "14440 cpm and 15184 cpm and 15871 cpm"},
      {"measurement": "% Control", "setting": "[4]; campaign 1, 100 μM", "value": 235, "unit": "%"},
      {"measurement": "Mean (cpm)", "setting": "[4]; campaign 1, 100 μM", "value": 30380, "unit": "cpm"},
      {"measurement": "[3H]-glucosamine (cpm)", "setting": "[4]; campaign 1, 100 μM", "value": "30079 cpm and 29149 cpm and 31911 cpm"},
      {"measurement": "% Control", "setting": "[4]; campaign 2, 10 μM", "value": 134, "unit": "%"},
      {"measurement": "Mean (cpm)", "setting": "[4]; campaign 2, 10 μM", "value": 11405, "unit": "cpm"},
      {"measurement": "[3H]-glucosamine (cpm)", "setting": "[4]; campaign 2, 10 μM", "value": "10145 cpm and 11857 cpm and 12213 cpm"},
      {"measurement": "% Control", "setting": "[4]; campaign 2, 100 μM", "value": 199, "unit": "%"},
      {"measurement": "Mean (cpm)", "setting": "[4]; campaign 2, 100 μM", "value": 16980, "unit": "cpm"},
      {"measurement": "[3H]-glucosamine (cpm)", "setting": "[4]; campaign 2, 100 μM", "value": "16745 cpm and 16574 cpm and 17621 cpm"}
    ]}
  ]
}
